# Reference: ChEMBL document CHEMBL4622872, “Discovery of DS-1971a, a Potent, Selective NaV1.7 Inhibitor” (J Med Chem, 2020)
# Experiments:
# [1] = Distribution coefficient, log D of the compound in 1-octanol and PBS buffer at pH 7.4 measured after 30 mins by LC-MS analysis; assay type: physicochemical; conditions: 1-octanol/PBS buffer
# [2] = Aqueous thermodynamic solubility of the compound at pH 6.8 measured after 4 hrs by UV-HPLC analysis; assay type: physicochemical; conditions: buffer, pH 6.8; read-out: Therm_solubility
# [3] = Stability of the compound in mouse liver microsomes assessed as parent compound remaining measured after 0.5 hrs; assay type: ADME, Microsome; conditions: mouse liver microsomes, read-out: Stability
logD at 0.5 h [1],solubility thermodynamic at 4 h [2] [µM],remaining at 0.5 h [3] [%],Compound
2.1,250,54,Cn1nccc1[C@H]1CCC[C@@H]1Oc1cc(F)c(S(=O)(=O)Nc2nccs2)cc1F (racemic)
0.1,1800,77,Cn1nccc1[C@H]1CCCC[C@@H]1Oc1cc(F)c(S(=O)(=O)Nc2ccncn2)c(F)c1 (racemic)
